Measurements taken from publication PMC3447897 (Diabetes, 2012).
Residues, ends and D or L forms follow the SMILES beside them.

Tests used:
[1] = tested on: epitope-specific TMr+CD8+ T cells; details: median over 7 HLA-A2+ new-onset T1D patients; cited from earlier work
[2] = target: HLA-B7.2 (Homo sapiens, UniProt P01889); assay: HLA-B7 peptide binding affinity assay
Chain of HLA-B7.2 (P01889 25-299 limits assumed): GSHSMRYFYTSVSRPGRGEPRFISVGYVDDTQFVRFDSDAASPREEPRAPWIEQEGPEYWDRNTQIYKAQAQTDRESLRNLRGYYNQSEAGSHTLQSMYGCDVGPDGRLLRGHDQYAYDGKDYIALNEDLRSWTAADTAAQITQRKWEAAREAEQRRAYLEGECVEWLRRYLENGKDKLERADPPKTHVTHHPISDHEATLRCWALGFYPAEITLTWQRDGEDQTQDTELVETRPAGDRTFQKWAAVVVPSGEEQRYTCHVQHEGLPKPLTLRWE
Chain of HLA-B7.2 (P61769 21-119 partner): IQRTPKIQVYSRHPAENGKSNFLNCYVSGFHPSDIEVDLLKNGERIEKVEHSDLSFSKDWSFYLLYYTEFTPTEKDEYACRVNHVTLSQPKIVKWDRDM

Row | Molecule | percent of epitope-specific T cells expressing IFNG mRNA, HLA-A2–restricted [1] | percent of epitope-specific T cells expressing TGFB mRNA, HLA-A2–restricted [1] | Kd [2]
1 | PPI6–14: HLA-A2–restricted preproinsulin epitope used for comparison (RLLPLLALL; UniProt P01308 6-14, looked up, fragment) | 60% | 13% | 
2 | CC[C@H](C)[C@H](NC(=O)[C@@H](NC(=O)[C@@H]1CCCN1C(=O)[C@H](C)N)C(C)C)C(=O)N[C@@H](CCCCN)C(=O)N[C@@H](C)C(=O)N[C@@H](CCCNC(=N)N)C(=O)N[C@@H](CCSC)C(=O)N[C@@H](CCSC)C(=O)O [GAD530–538] (H-APVIKARMM-OH) |  |  | 61 nM
3 | CC[C@H](C)[C@H](N)C(=O)N1CCC[C@H]1C(=O)N[C@@H](CO)C(=O)N[C@@H](CC(=O)O)C(=O)N[C@@H](CC(C)C)C(=O)N[C@@H](CCC(=O)O)C(=O)N[C@@H](CCCNC(=N)N)C(=O)N[C@@H](CCCNC(=N)N)C(=O)N[C@H](C(=O)N[C@@H](CC(C)C)C(=O)O)[C@@H](C)CC [GAD311–320] (H-IPSDLERRIL-OH) |  |  | 100 nM
4 | CC(C)C[C@H](NC(=O)[C@H](C)NC(=O)[C@H](CC(C)C)NC(=O)[C@H](CC(C)C)NC(=O)[C@H](C)NC(=O)[C@H](CC(C)C)NC(=O)[C@H](CC(C)C)NC(=O)[C@@H]1CCCN1C(=O)[C@@H](N)CC(C)C)C(=O)O [PPI8–16] (H-LPLLALLAL-OH) |  |  | 1090 nM
